Measurements published in ChEMBL document CHEMBL4706747, “Discovery of 5-Nitro-6-thiocyanatopyrimidines as Inhibitors of Cryptococcus neoformans and Cryptococcus gattii” (ACS Med Chem Lett, 2021).
Converted amounts (≈) assume the structure as drawn. “And” between values parts separate entries of the source, which are not always exact repeats. Identical values can stand only once.

What was measured:
[1] = Cytotoxicity against human HepDE19 cells incubated for 72 hrs by MTS assay; type: cell-based
Cryptococcus neoformans [2] = experiment: Antifungal activity against Cryptococcus neoformans KN99alpha assessed as fungal growth inhibition after 48 hrs by limiting dilution method; type: functional
[3] = Antifungal activity against Cryptococcus gattii RSA-3615 assessed as fungal growth inhibition after 48 hrs by limiting dilution method; type: functional, Cryptococcus gattii VGI
Cryptococcus neoformans [4] = experiment: Antifungal activity against fluconazole-resistant Cryptococcus neoformans DUMC-158.03 assessed as fungal growth inhibition after 48 hrs by limiting dilution method; type: functional
Cryptococcus neoformans [5] = experiment: Synergistic antifungal activity against Cryptococcus neoformans KN99alpha assessed as fractional inhibitory concentration index in presence of amphotericin B by checkerboard assay; type: functional
Cryptococcus neoformans [6] = experiment: Synergistic antifungal activity against Cryptococcus neoformans KN99alpha assessed as fractional inhibitory concentration index in presence of fluconazole by checkerboard assay; type: functional
[7] = Selectivity index, ratio of CC50 for human HepDE19 cells to MIC80 for Cryptococcus neoformans KN99alpha; type: toxicity; settings: read-out: Selectivity Index
Cryptococcus neoformans [8] = experiment: Antifungal activity against Cryptococcus neoformans assessed as fungal growth inhibition after 72 hrs by broth microdilution method; type: functional

SMILES	CC50 at 72 h [1]	MIC80 (Cryptococcus neoformans [2])	MIC80 [3]	other results
CC(C)Oc1ncnc(SC#N)c1[N+](=O)[O-]	23.3 µM and 5.6 µg/mL	1.9 µM and 0.45 µg/mL	1.17 µM and 0.27 µg/mL	–
CC1CCCCN1c1ncnc(SC#N)c1[N+](=O)[O-] (stereo unspecified)	–	9.37 µM and 2.61 µg/mL	1.17 µM and 0.32 µg/mL	–
CCCOc1ncnc(SC#N)c1[N+](=O)[O-]	31.8 µM and 7.64 µg/mL	3.9 µM and 0.93 µg/mL	4.68 µM and 1.12 µg/mL	–
N#CSc1ncnc(NC2CCCC2)c1[N+](=O)[O-]	–	4.9 µM and 1.29 µg/mL	1.17 µM and 0.3 µg/mL	MIC80 (Cryptococcus neoformans [4]): 2.34 µM and 0.62 µg/mL
CCCOc1nc(C)nc(SC#N)c1[N+](=O)[O-]	15.8 µM and 4.02 µg/mL	0.6 µM and 0.15 µg/mL	1.17 µM and 0.29 µg/mL	MIC80 (Cryptococcus neoformans [4]): 1.17 µM and 0.29 µg/mL
Cc1nc(NC2CCCC2)c([N+](=O)[O-])c(SC#N)n1	–	9 µM and 2.51 µg/mL	2.34 µM and 0.65 µg/mL	–
CN(C)c1ncnc(SC#N)c1[N+](=O)[O-]	–	4.68 µM and 1.05 µg/mL	1.17 µM and 0.26 µg/mL	–
CC(C)C(C)Nc1ncnc(SC#N)c1[N+](=O)[O-] (stereo unspecified)	–	3 µM and 0.8 µg/mL	–	–
CSc1nc(NCCc2ccccc2)c([N+](=O)[O-])c(SC#N)n1	15.4 µM and 5.35 µg/mL	9.37 µM and 3.25 µg/mL	1.17 µM and 0.4 µg/mL	–
N#CSc1ncnc(NCc2cccc(C(F)(F)F)c2)c1[N+](=O)[O-]	25.9 µM and 9.21 µg/mL	9.37 µM and 3.32 µg/mL	4.68 µM and 1.66 µg/mL	–
N#CSc1ncnc(N)c1[N+](=O)[O-]	–	4.68 µM and 0.92 µg/mL	1.17 µM and 0.22 µg/mL	–
Cc1nc(SC#N)c([N+](=O)[O-])c(N2CC(C)CC(C)C2)n1 (stereo unspecified)	–	18.8 µM and 5.76 µg/mL	9.37 µM and 2.88 µg/mL	–
N#CSc1ncnc(N2CCCCCC2)c1[N+](=O)[O-]	17.7 µM and 4.94 µg/mL	2.34 µM and 0.65 µg/mL	2.34 µM and 0.65 µg/mL	MIC80 (Cryptococcus neoformans [4]): 2.34 µM and 0.65 µg/mL
Cc1nc(SC#N)c([N+](=O)[O-])c(N2CCCCC2C)n1 (stereo unspecified)	–	18.8 µM and 5.49 µg/mL	0.58 µM and 0.16 µg/mL	–
CNc1nc(C)nc(SC#N)c1[N+](=O)[O-]	> 100 µM and > 22.5 µg/mL	2.34 µM and 0.52 µg/mL	1.17 µM and 0.26 µg/mL	MIC80 (Cryptococcus neoformans [4]): 2.34 µM and 0.52 µg/mL
CCN(CC)c1nc(C)nc(SC#N)c1[N+](=O)[O-]	–	9.37 µM and 2.5 µg/mL	2.34 µM and 0.62 µg/mL	–
CN(c1ncnc(SC#N)c1[N+](=O)[O-])C1CCCCC1	25.3 µM and 7.42 µg/mL	6 µM and 1.76 µg/mL	4.68 µM and 1.37 µg/mL	–
CC(C)N(Cc1ccccc1)c1ncnc(SC#N)c1[N+](=O)[O-]	–	> 50 µM and > 16.5 µg/mL	> 25 µM and > 8.23 µg/mL	–
Cc1nc(NCc2ccccc2)c([N+](=O)[O-])c(SC#N)n1	15.9 µM and 4.78 µg/mL	50 µM and 15.1 µg/mL	18.8 µM and 5.64 µg/mL	–
CCN(CC)c1ncnc(SC#N)c1[N+](=O)[O-]	–	9.37 µM and 2.37 µg/mL	0.14 µM and 0.03 µg/mL	–
N#CSc1ncnc(NCc2ccc(Cl)cc2)c1[N+](=O)[O-]	22.5 µM and 7.25 µg/mL	5.85 µM and 1.88 µg/mL	1.17 µM and 0.37 µg/mL	–
CSc1nc(NCc2ccccc2)c([N+](=O)[O-])c(SC#N)n1	18.6 µM and 6.2 µg/mL	4.68 µM and 1.56 µg/mL	4.68 µM and 1.56 µg/mL	–
N#CSc1ncnc(N2CCCCCCC2)c1[N+](=O)[O-]	–	4.68 µM and 1.37 µg/mL	2.34 µM and 0.68 µg/mL	–
CCOc1nc(C)nc(SC#N)c1[N+](=O)[O-]	19.8 µM and 4.76 µg/mL	1.17 µM and 0.27 µg/mL	0.29 µM and 0.06 µg/mL	MIC80 (Cryptococcus neoformans [4]): 2.34 µM and 0.56 µg/mL
N#CSc1ncnc(NCc2ccccc2)c1[N+](=O)[O-]	19.6 µM and 5.63 µg/mL	2.34 µM and 0.66 µg/mL	1.17 µM and 0.33 µg/mL	MIC80 (Cryptococcus neoformans [4]): 1.17 µM and 0.33 µg/mL
CC(C)Nc1nc(-c2ccccc2)nc(SC#N)c1[N+](=O)[O-]	–	50 µM and 15.8 µg/mL	–	–

SMILES	CC50 at 72 h [1]	MIC80 (Cryptococcus neoformans [2])	MIC80 [3]	other results
N#CSc1ncnc(NCCc2ccccc2)c1[N+](=O)[O-]	15.1 µM and 4.55 µg/mL	3.51 µM and 1.05 µg/mL	2.34 µM and 0.7 µg/mL	–
CC(C)Nc1nc(C(F)(F)F)nc(SC#N)c1[N+](=O)[O-]	42.8 µM and 13.2 µg/mL	12.2 µM and 4.4 µg/mL	> 25 µM and > 7.68 µg/mL	MIC80 (Cryptococcus neoformans [4]): 18.8 µM and 5.76 µg/mL
Cc1nc(OC(C)C)c([N+](=O)[O-])c(SC#N)n1	14.6 µM and 3.71 µg/mL	1 µM and 0.25 µg/mL	1.17 µM and 0.29 µg/mL	MIC80 (Cryptococcus neoformans [4]): 1.17 µM and 0.29 µg/mL
Cc1nc(SC#N)c([N+](=O)[O-])c(N(C)C)n1	–	4.68 µM and 1.11 µg/mL	2.34 µM and 0.55 µg/mL	–
Cc1nc(NCCc2ccccc2)c([N+](=O)[O-])c(SC#N)n1	12.3 µM and 3.87 µg/mL	50 µM and 15.8 µg/mL	2.34 µM and 0.73 µg/mL	–
Cc1nc(SC#N)c([N+](=O)[O-])c(N2CCCC2)n1	–	4.68 µM and 1.23 µg/mL	1.17 µM and 0.3 µg/mL	–
CN(Cc1ccccc1)c1ncnc(SC#N)c1[N+](=O)[O-]	18.8 µM and 5.66 µg/mL	2.34 µM and 0.7 µg/mL	1.17 µM and 0.35 µg/mL	–
CCC(CC)Nc1nc(C)nc(SC#N)c1[N+](=O)[O-]	–	9 µM and 2.53 µg/mL	9.37 µM and 2.63 µg/mL	–
N#CSc1ncnc(N2CCCCC2)c1[N+](=O)[O-]	11.9 µM and 3.16 µg/mL	2.34 µM and 0.61 µg/mL	1.17 µM and 0.3 µg/mL	MIC80 (Cryptococcus neoformans [4]): 4.68 µM and 1.24 µg/mL
CCN(c1ncnc(SC#N)c1[N+](=O)[O-])C(C)C	10.7 µM and 2.86 µg/mL	4.55 µM and 1.4 µg/mL	1.17 µM and 0.3 µg/mL	–
Cc1nc(SC#N)c([N+](=O)[O-])c(N2CCCCCC2)n1	–	18.8 µM and 5.49 µg/mL	4.68 µM and 1.37 µg/mL	–
CSc1nc(NCc2ccc(C)cc2)c([N+](=O)[O-])c(SC#N)n1	19.2 µM and 6.67 µg/mL	9.37 µM and 3.25 µg/mL	4.68 µM and 1.62 µg/mL	–
CNc1nc(/C=C/c2ccccc2)nc(SC#N)c1[N+](=O)[O-]	–	> 50 µM and > 15.7 µg/mL	> 25 µM and > 7.83 µg/mL	–
Cc1nc(NC2CCCCC2)c([N+](=O)[O-])c(SC#N)n1	–	> 50 µM and > 24.6 µg/mL	> 25 µM and > 12.3 µg/mL	–
Cc1nc(NC2CC2)c([N+](=O)[O-])c(SC#N)n1	12.7 µM and 3.19 µg/mL	0.6 µM and 0.15 µg/mL	0.58 µM and 0.14 µg/mL	fractional inhibitory concentration index (FICI) (Cryptococcus neoformans [5]): 1.25; fractional inhibitory concentration index (FICI) (Cryptococcus neoformans [6]): 1.5; MIC80 (Cryptococcus neoformans [4]): 1.17 µM and 0.29 µg/mL; selectivity ratio [7]: 16
CC1CC(C)CN(c2ncnc(SC#N)c2[N+](=O)[O-])C1 (stereo unspecified)	33.6 µM and 9.86 µg/mL	2.34 µM and 0.68 µg/mL	9.37 µM and 2.74 µg/mL	–
Cc1ccc(CNc2nc(C)nc(SC#N)c2[N+](=O)[O-])cc1	14.7 µM and 4.65 µg/mL	50 µM and 15.8 µg/mL	1.17 µM and 0.36 µg/mL	–
O[C@@](Cn1cnnn1)(c1ccc(F)cc1F)C(F)(F)c1ccc(-c2ccc(OC(F)(F)F)cc2)cn1	–	–	–	MIC50 (Cryptococcus neoformans [8]): 0.015 µg/mL (≈ 0.0292 µM); MIC (Cryptococcus neoformans [8]; read-out: MIC100): 0.06 µg/mL (≈ 0.117 µM)
N#CSc1ncnc(NC2CCCCC2)c1[N+](=O)[O-]	–	6 µM and 1.67 µg/mL	1.17 µM and 0.32 µg/mL	–
CC(C)Nc1ncnc(SC#N)c1[N+](=O)[O-]	12 µM and 2.87 µg/mL	2.34 µM and 0.55 µg/mL	0.58 µM and 0.13 µg/mL	MIC80 (Cryptococcus neoformans [4]): 2.34 µM and 0.55 µg/mL
COc1ncnc(SC#N)c1[N+](=O)[O-]	–	9.37 µM and 1.98 µg/mL	> 25 µM and > 5.3 µg/mL	–
Cc1nc(N)c([N+](=O)[O-])c(SC#N)n1	24.5 µM and 5.17 µg/mL	2.34 µM and 0.48 µg/mL	0.58 µM and 0.12 µg/mL	MIC80 (Cryptococcus neoformans [4]): 2.34 µM and 0.49 µg/mL
CCC(CC)Nc1ncnc(SC#N)c1[N+](=O)[O-]	–	18.5 µM and 4.94 µg/mL	> 25 µM and > 6.68 µg/mL	–
Cc1nc(SC#N)c([N+](=O)[O-])c(N2CCCCCCC2)n1	–	18.8 µM and 5.76 µg/mL	2.34 µM and 0.71 µg/mL	–
CC1CCCC(C)N1c1ncnc(SC#N)c1[N+](=O)[O-] (stereo unspecified)	–	9.37 µM and 2.74 µg/mL	15.6 µM and 4.58 µg/mL	–
